# PubChem BioAssay (NCI)
#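 Following 48 hours of exposure in 96-well plates, responses at five concentrations were used to interpolate endpoints linearly. TGI marks complete inhibition of growth.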
# Columns and labels:
# Assay in all cases: NCI tumour cell line growth inhibition, 48 h
# [1] = tested on: MCF7 breast
# [2] = tested on: EKVX NSCLC
# [3] = tested on: SN12C renal
# [4] = tested on: NCI-H23 lung
# [5] = tested on: HT29 colon
# [6] = tested on: PC-3 prostate
# [7] = tested on: HCT-15 colon
# [8] = tested on: UACC-62 melanoma
# [9] = tested on: HCC-2998 colon
# [10] = tested on: NCI-H226 lung
# [11] = tested on: MDA-MB-435
# [12] = tested on: SK-OV-3 ovarian
# [13] = tested on: DU-145 prostate
# [14] = tested on: SR leukemia
# [15] = tested on: CCRF-CEM leukemia
# [16] = tested on: K-562 leukemia
# [17] = tested on: LOX IMVI melanoma
# [18] = tested on: SF-539 CNS
# [19] = tested on: ACHN renal
# [20] = tested on: MALME-3M melanoma
# [21] = tested on: SNB-19 CNS
# [22] = tested on: M14 melanoma
# [23] = tested on: UO-31 renal
# [24] = tested on: MOLT-4 leukemia
# [25] = tested on: SW-620 colon
# [26] = tested on: A498 renal
# [27] = tested on: SK-MEL-28 melanoma
# [28] = tested on: SK-MEL-5 melanoma
# [29] = tested on: OVCAR-4 ovarian
# [30] = tested on: 786-0 renal
# [31] = tested on: NCI-H460 lung
# [32] = tested on: HOP-62 NSCLC
# [33] = tested on: RPMI-8226 leukemia
# [34] = tested on: UACC-257 melanoma
# [35] = tested on: TK-10 renal
# [36] = tested on: KM12 colon
# [37] = tested on: NCI-H522 lung
# [38] = tested on: RXF 393 renal
# [39] = tested on: NCI/ADR-RES ovarian
# [40] = tested on: COLO 205 colon
# [41] = tested on: HOP-92 NSCLC
# [42] = tested on: HL-60(TB) leukemia
# [43] = tested on: SF-295 CNS
# [44] = tested on: MDA-MB-231 breast
# [45] = tested on: IGROV1 ovarian
# [46] = tested on: T-47D breast
# [47] = tested on: OVCAR-8 ovarian
# [48] = tested on: HS 578T breast
# [49] = tested on: MDA-N
# [50] = tested on: OVCAR-3 ovarian
# [51] = tested on: OVCAR-5 ovarian
# [52] = tested on: HCT-116 colon
# [53] = tested on: SF-268 CNS
# [54] = tested on: U251 CNS
# [55] = tested on: BT-549 breast
# [56] = tested on: CAKI-1 renal
# [57] = tested on: A549 NSCLC
# [58] = tested on: SK-MEL-2 melanoma
# [59] = tested on: SNB-75 CNS
smiles,measurement,setting,value
Cc1ccc(/C=C2\CN(C)CC3=C2OC(N)=C(C#N)C3c2ccc(C)cc2)cc1 (configuration not stated),TGI,[1],47.8 µM
same,TGI,[2],56.5 µM
same,TGI,[3],35.3 µM
same,TGI,[4],62.6 µM
same,TGI,[5],34.2 µM
same,TGI,[6],> 45.1 µM
same,TGI,[7],42.9 µM
same,TGI,[8],89.1 µM
same,TGI,[9],37.2 µM
same,TGI,[10],72.4 µM
same,TGI,[11],34.7 µM
same,TGI,[12],35.3 µM
same,TGI,[13],44.7 µM
same,TGI,[14],> 100 µM
same,TGI,[15],22 µM
same,TGI,[16],> 100 µM
same,TGI,[17],27.2 µM
same,TGI,[18],> 100 µM
same,TGI,[19],50 µM
same,TGI,[20],37.2 µM
same,TGI,[21],73.4 µM
same,TGI,[22],43.9 µM
same,TGI,[23],53.4 µM
same,TGI,[24],> 51 µM
same,TGI,[25],> 100 µM
same,TGI,[26],45.2 µM
same,TGI,[27],> 71.5 µM
same,TGI,[28],> 100 µM
same,TGI,[29],34 µM
same,TGI,[30],32 µM
same,TGI,[31],34.3 µM
same,TGI,[32],52.7 µM
same,TGI,[33],> 48.7 µM
same,TGI,[34],43.1 µM
same,TGI,[35],> 80.8 µM
same,TGI,[36],39.3 µM
same,TGI,[37],> 49.9 µM
same,TGI,[38],28.3 µM
same,TGI,[39],> 100 µM
same,TGI,[40],> 69.3 µM
same,TGI,[41],15.9 µM
same,TGI,[42],> 100 µM
same,TGI,[43],46 µM
same,TGI,[44],> 63.7 µM
same,TGI,[45],39.4 µM
same,TGI,[46],71.2 µM
same,TGI,[47],> 92 µM
same,TGI,[48],> 100 µM
same,TGI,[49],38.1 µM
same,TGI,[50],29.8 µM
same,TGI,[51],55.7 µM
same,TGI,[52],27.5 µM
same,TGI,[53],> 100 µM
same,TGI,[54],> 61.1 µM
same,TGI,[55],40.1 µM
same,TGI,[56],74.6 µM
same,TGI,[57],49.4 µM
same,TGI,[58],> 63.4 µM
CCN(CC)C(=S)SS(=O)(=O)c1ccccc1C(=O)O,TGI,[1],> 100 µM
same,TGI,[2],> 100 µM
same,TGI,[3],> 100 µM
same,TGI,[4],> 100 µM
same,TGI,[5],> 100 µM
same,TGI,[6],> 100 µM
same,TGI,[7],> 100 µM
same,TGI,[8],> 100 µM
same,TGI,[9],> 100 µM
same,TGI,[10],> 100 µM
same,TGI,[11],> 100 µM
same,TGI,[12],> 100 µM
same,TGI,[13],> 100 µM
same,TGI,[14],> 100 µM
same,TGI,[15],> 100 µM
same,TGI,[16],> 100 µM
same,TGI,[17],> 100 µM
same,TGI,[18],> 100 µM
same,TGI,[19],> 100 µM
same,TGI,[20],> 100 µM
same,TGI,[21],> 100 µM
same,TGI,[22],> 100 µM
same,TGI,[23],> 100 µM
same,TGI,[24],> 100 µM
same,TGI,[25],> 100 µM
same,TGI,[26],> 100 µM
same,TGI,[27],> 100 µM
same,TGI,[28],> 100 µM
same,TGI,[29],> 100 µM
same,TGI,[30],> 100 µM
same,TGI,[31],> 100 µM
same,TGI,[32],> 100 µM
same,TGI,[33],> 100 µM
same,TGI,[34],> 100 µM
same,TGI,[35],> 100 µM
same,TGI,[36],> 100 µM
same,TGI,[37],> 36.3 µM
same,TGI,[38],> 100 µM
same,TGI,[39],> 100 µM
same,TGI,[40],> 100 µM
same,TGI,[41],> 100 µM
same,TGI,[59],> 100 µM
same,TGI,[42],> 42 µM
same,TGI,[43],> 100 µM
same,TGI,[44],> 100 µM
same,TGI,[45],> 100 µM
same,TGI,[46],> 100 µM
same,TGI,[47],> 100 µM
same,TGI,[48],> 100 µM
same,TGI,[49],> 100 µM
same,TGI,[50],> 100 µM
same,TGI,[51],> 100 µM
same,TGI,[52],> 100 µM
same,TGI,[53],> 100 µM
same,TGI,[54],> 100 µM
same,TGI,[55],> 100 µM
same,TGI,[56],> 100 µM
same,TGI,[57],> 100 µM
same,TGI,[58],> 100 µM
